This is an account of results in patent publication US20160120858A1 (ACADEMIA SINICA, priority 2014, published 2016).

One assay has as its system Shank2^−/− mice. Description: Repetitive behaviors (jumping, grooming) in home cage. It counts as in vivo, mouse. The conditions noted are these: 30 mg/kg i.p.; for Grooming / Jumping: Shank2^−/− mice, 2 hours prior to testing; for Repetitive behaviors: wild-type mice. The protocol:
The injection was performed 2 hours before (Shank2^−/− mice and wild-type littermates), or 3 hours before (Tbr1^+/− mice and wild-type littermates) behavioral assays at the discretion of the facility. A within-subjects design was designed with a one week washout period (FIG. 8), and divided animals into two groups, vehicle-first and clioquinol-first group, to rule out carryover effects. Each mouse received a single acute dose of vehicle or clioquinol, and underwent a single behavioral task, one task per week. Testing was conducted in dedicated behavioral test rooms during the light phase (three-chamber test) and the dark phase (repetitive behaviors and open field test). Shank2^−/− mice and their wild-type littermates in their home cages without bedding were used to measure times spent in repetitive behaviors including jumping and grooming. In this case, jumping is defined as mice planting rear feet and standing up by lifting front feet along the cage, in other words, the cage corner or a side wall, and jumping up such that both of the rear feed are separated from the bottom surface. Meanwhile, grooming is defined as stroking or scratching the face or the body with two front feet or licking a part of the body. The experiments and analysis were performed independently in a blind manner.

In assay [1] the test system is hippocampal SC-CA1 synapses. Description: Tetanus-induced LTP (fEPSP), hippocampal slices. Type of assay: cell-based, mouse. The conditions noted are these: 4 uM. Here is the method:
(§1) For electrophysiological experiments, sagittal hippocampal slices (400 uM thick for extracellular, 300 uM thick for intracellular recordings) of Shank2^-/- mice (or ZnT3^-/- mice) and their wild-type littermates were prepared using a vibratome (Leica VT1200) in ice-cold dissection buffer containing (in mM) 212 sucrose, 25 NaHCO3, 5 KCl, 1.25 NaH2PO4, 0.5 CaCl2, 3.5 MgSO4, 10 D-glucose, 1.25 L-ascorbic acid, and 2 Na-pyruvate bubbled with 95% 02/5% CO2. CA3 was removed to prevent epileptiform activity. Slices were restored for 1 hour in 32° C. in a normal artificial CSF (ACSF) (In units of mM: 124 NaCl, 2.5 kCl, 1 NaH2PO4, 25 NaHCO3, 10 glucose, 2 CaC12, 2 Mg504 oxidized by 95% 02/5% CO2) For the recording, a single slice was moved to and maintained in submerged-type chamber at 28° C., continuously perfused with ACSF (2 mL/minute) saturated with 95% 02/5% CO2. Stimulation and recording pipettes were pulled from borosilicate glass capillaries (Harvard Apparatus) using a micropipette electrode puller ([…]). For extracellular recordings, mouse hippocampal slices at the age of postnatal day 21 to 35 were used. Field excitatory postsynaptic potentials (fEPSPs) were recorded in the stratum radiatum of the hippocampal CA1 region using pipettes filled with ACSF (1 MΩ). fEPSP was amplified (Multiclamp 700B, Molecular Devices), and digitized (Digidata 1440A, Molecular Devices) for measurements. The Schaffer collateral pathway was stimulated every 20 seconds with pipettes filled with ACSF (0.3 to 0.5 MΩ). The stimulation intensity was adjusted to yield a half-maximal response, and three successive responses were averaged and expressed relative to the normalized baseline. To induce LTP, high frequency stimulation (100 Hz, 1 s) was applied after a stable baseline was acquired.

The subject of another assay is AMPAR. Description: AMPA-fEPSPs, input-output and paired pulse ratio, hippocampal slices. Type of assay: cell-based, mouse. The conditions noted are these: 4 uM; for AMPA-fEPSPs: WT and KO; for Input-output relationship (AMPA-fEPSP slopes against fiber volley): WT and Shank2^−/− SC-CA1 synapses. The protocol: as §1

With `Oc1c(I)cc(Cl)c2cccnc12` [clioquinol, 5-Chloro-7-Iodo-8-Hydroxyquinoline], the Grooming result is on record as “not influenced” in the assay on Shank2^−/− mice, “has no effect on grooming” in the assay on Shank2^−/− mice (listed as CQ) and “had no effect” with Shank2^−/− mice (listed as Clioquinol). The Jumping entry is listed as “not influenced” in the assay with Shank2^−/− mice, “fails to improve jumping” in the assay on Shank2^−/− mice (listed as CQ) and “had no effect” with Shank2^−/− mice (listed as Clioquinol). Further, the Repetitive behaviors entry was “did not affect repetitive behaviors” with Shank2^−/− mice and “had no effect” with Shank2^−/− mice (listed as Clioquinol). Further, the “Tetanus (100 Hz)-induced LTP” value is given as “reversed the reduced tetanus-induced long-term potentiation” in assay [1] (Shank2^−/− SC-CA1 synapses); “restored LTP” in assay [1] (Shank2^−/− SC-CA1 synapses, listed as CQ); “had no effect on LTP” in assay [1] (wild-type synapses). In addition, the values for the AMPA-fEPSPs entry with AMPAR and in the assay with AMPAR (listed as CQ) were “not affected” and “has no effect on AMPA-fEPSPs”, respectively. In addition, the results for the “Input-output relationship (AMPA-fEPSP slopes against fiber volley)” value in the assay with AMPAR and in the assay with AMPAR (listed as CQ) were “had no effect” and “has no effect on the input-output relationship”, respectively.
